Data taken from US6737383B1, “Herbicidal oxadiazolidines” (priority 1999, dated 2004).

Key:
velvetleaf = assay: Test B pre/postemergence velvetleaf; assay type: in vivo, Abutilon theophrasti
How it was run: (§1)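 Test chemicals in a non-phytotoxic solvent mixture with surfactant were sprayed preemergence onto planted seeds and postemergence onto plants 2 to 18 cm tall (1- to 4-leaf stage). After twelve to sixteen days in a greenhouse, injury was visually rated against untreated controls from 0 (no effect) to 10 (complete control).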

wheat = assay: Test B pre/postemergence wheat; assay type: in vivo, Triticum aestivum
How it was run: as §1

surinam grass = assay: Test B pre/postemergence surinam grass; assay type: in vivo, Brachiaria decumbens
How it was run: as §1

corn = assay: Test B pre/postemergence corn; assay type: in vivo, Zea mays
How it was run: as §1

blackgrass = assay: Test B pre/postemergence blackgrass; assay type: in vivo, Alopecurus myosuroides
How it was run: as §1

soybean = assay: Test B pre/postemergence soybean; assay type: in vivo, Glycine max
How it was run: as §1

crabgrass = assay: Test B pre/postemergence crabgrass; assay type: in vivo, Digitaria sanguinalis
How it was run: as §1

bedstraw = assay: Test B pre/postemergence bedstraw; assay type: in vivo, Galium aparine; conditions: Preemergence
How it was run: as §1

smallflower flatsedge = assay: Test B flood test smallflower flatsedge; assay type: in vivo, Cyperus difformis
How it was run: (§2)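 Flood test on plants grown to the 2-leaf stage; treated plants kept in greenhouse twelve to sixteen days, then visually rated against controls on a 0 (no effect) to 10 (complete control) scale.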

pigweed = assay: Test B pre/postemergence pigweed; assay type: in vivo, Amaranthus retroflexus
How it was run: as §1

rape = assay: Test B pre/postemergence rape; assay type: in vivo, Brassica napus
How it was run: as §1

wild oat = assay: Test B pre/postemergence wild oat; assay type: in vivo, Avena fatua
How it was run: as §1

sugar beet = assay: Test B pre/postemergence sugar beet; assay type: in vivo, Beta vulgaris
How it was run: as §1

duck salad = assay: Test B flood test duck salad; assay type: in vivo, Heteranthera limosa
How it was run: as §2

purple nutsedge = assay: Test B pre/postemergence purple nutsedge; assay type: in vivo, Cyperus rotundus
How it was run: as §1

rice = assay: Test B flood test rice; assay type: in vivo, Oryza sativa
How it was run: as §2

[1] = Postemergence, Rate 62 g/ha, scale 0 to 10, 0 is no effect, 10 is complete control
[2] = Postemergence, Rate 125 g/ha, scale of 0 to 10 where 0 is no effect and 10 is complete control
[3] = Postemergence, Rate 250 g/ha, scale of 0 to 10, 0 is no effect, 10 is complete control
[4] = Postemergence, Rate 500 g/ha, scale of 0 to 10 where 0 is no effect and 10 is complete control
[5] = Preemergence, Rate 62 g/ha, scale 0 to 10 (0 no effect, 10 complete control)
[6] = Preemergence, Rate 125 g/ha, scale of 0 to 10 where 0 is no effect and 10 is complete control
[7] = Preemergence, Rate 500 g/ha, scale of 0 to 10 where 0 is no effect and 10 is complete control
[8] = Rate 62 g/ha, flood test species, Pre-emergence, visual evaluation after twelve to sixteen days
[9] = Rate 125 g/ha, under heading Pre-emergence, flood test species, visual evaluation after twelve to sixteen days
[10] = Rate 250 g/ha, Pre-emergence (flood test species), scale 0 to 10, 0 is no effect, 10 is complete control
[11] = Rate 500 g/ha, Pre-emergence section of Table B, 0 to 10 scale (0 no effect, 10 complete control)

## CC(C)N(C(=O)n1oc(=O)n(CC(C)[N+](=O)[O-])c1=O)c1ccccc1 (stereo not shown) [Compound 604]
velvetleaf; [1]
  Plant response rating, Velvetleaf: 0
velvetleaf; [2]
  Plant response rating, Velvetleaf: 0
velvetleaf; [3]
  Velvetleaf plant response rating: 0
velvetleaf; [4]
  Plant response rating, Velvetleaf: 0
velvetleaf; [5]
  Velvetleaf plant response rating: 0
velvetleaf; [6]
  Velvetleaf plant response rating: 0
velvetleaf; [7]
  Plant response rating, Velvetleaf: 0
wheat; [1]
  Plant response rating, Wheat: 0
wheat; [2]
  Plant response rating, Wheat: 0
wheat; [3]
  Wheat plant response rating: 0
wheat; [4]
  Plant response rating, Wheat: 0
wheat; [5]
  Wheat plant response rating: 0
wheat; [6]
  Wheat plant response rating: 0
wheat; [7]
  Plant response rating, Wheat: 0
Surinam grass; [1]
  Plant response rating, B. signalgrass: 0
Surinam grass; [2]
  Plant response rating, B. signalgrass: 0
Surinam grass; [3]
  B. signalgrass plant response rating: 0
Surinam grass; [4]
  Plant response rating, B. signalgrass: 0
Surinam grass; [5]
  B. signalgrass plant response rating: 0
Surinam grass; [6]
  B. signalgrass plant response rating: 0
Surinam grass; Preemergence, Rate 250 g/ha
  B. signalgrass plant response rating (0 to 10 scale, 0 is no effect, 10 is complete control): 0
Surinam grass; [7]
  B. signalgrass plant response rating: 0
corn; [1]
  Plant response rating, Corn: 0
corn; [2]
  Plant response rating, Corn: 0
corn; [3]
  Corn plant response rating: 0
corn; [4]
  Plant response rating, Corn: 0
corn; [5]
  Corn plant response rating: 0
corn; [6]
  Corn plant response rating: 0
corn; Preemergence, Rate 250 g/ha
  Corn plant response rating (0 to 10 scale): 0
corn; [7]
  Plant response rating, Corn: 0
blackgrass; [1]
  Plant response rating, Blackgrass: 0
blackgrass; [2]
  Plant response rating, Blackgrass: 0
blackgrass; [3]
  Blackgrass plant response rating: 0
blackgrass; [4]
  Plant response rating, Blackgrass: 0
blackgrass; [5]
  Blackgrass plant response rating: 0
blackgrass; [6]
  Blackgrass plant response rating: 0
blackgrass; Preemergence, Rate 250 g/ha
  Blackgrass plant response rating (0 to 10 scale): 0
blackgrass; [7]
  Blackgrass plant response rating: 0
soybean; [1]
  Plant response rating, Soybean: 0
soybean; [2]
  Plant response rating, Soybean: 1
soybean; [3]
  Soybean plant response rating: 1
soybean; [4]
  Plant response rating, Soybean: 1
soybean; [5]
  Soybean plant response rating: 0
soybean; [6]
  Soybean plant response rating: 0
soybean; [7]
  Plant response rating, Soybean: 0
crabgrass; [1]
  Plant response rating, Crabgrass: 1
crabgrass; [3]
  Crabgrass plant response rating: 3
crabgrass; [4]
  Plant response rating, Crabgrass: 3
crabgrass; [5]
  Crabgrass plant response rating: 0
crabgrass; [6]
  Crabgrass plant response rating: 0
crabgrass; [7]
  Plant response rating, Crabgrass: 1
bedstraw; Rate 250 g/ha
  Bedstraw plant response rating (0 to 10 scale): 0
bedstraw; Rate 500 g/ha, scale of 0 to 10 where 0 is no effect and 10 is complete control
  Bedstraw plant response rating: 0
Smallflower flatsedge; [8]
  Plant response rating, S. Flatsedge (0 to 10 scale, 0 is no effect, 10 is complete control): 0
Smallflower flatsedge; [9]
  S. Flatsedge plant response rating (0 to 10 scale, 0 is no effect, 10 is complete control): 0
Smallflower flatsedge; [10]
  S. Flatsedge plant response rating: 0
Smallflower flatsedge; [11]
  S. Flatsedge plant response rating: 0
pigweed; [1]
  Plant response rating, Redroot pigweed: 0
pigweed; [2]
  Plant response rating, Redroot pigweed: 0
pigweed; [3]
  Redroot pigweed plant response rating: 0
pigweed; [4]
  Plant response rating, Redroot pigweed: 0
pigweed; [5]
  Redroot pigweed plant response rating: 0
pigweed; [6]
  Redroot pigweed plant response rating: 0
pigweed; [7]
  Plant response rating, Redroot pigweed: 0
rape; [1]
  Plant response rating, Rape: 0
rape; [2]
  Plant response rating, Rape: 0
rape; [3]
  Rape plant response rating: 0
rape; [4]
  Plant response rating, Rape: 0
rape; [5]
  Rape plant response rating: 0
rape; [6]
  Rape plant response rating: 0
rape; [7]
  Plant response rating, Rape: 0
Wild oat; [1]
  Plant response rating, Wild oats: 0
Wild oat; [2]
  Plant response rating, Wild oats: 0
Wild oat; [3]
  Wild oats plant response rating: 0
Wild oat; [4]
  Plant response rating, Wild oats: 0
Wild oat; [5]
  Wild oats plant response rating: 0
Wild oat; [6]
  Wild oats plant response rating: 0
Wild oat; [7]
  Plant response rating, Wild oats: 0
Sugar beet; [1]
  Plant response rating, Sugarbeets: 0
Sugar beet; [2]
  Plant response rating, Sugarbeets: 0
Sugar beet; [3]
  Sugarbeets plant response rating: 0
Sugar beet; [4]
  Plant response rating, Sugarbeets: 0
Sugar beet; [5]
  Sugarbeets plant response rating: 0
Sugar beet; [6]
  Sugarbeets plant response rating: 0
Sugar beet; [7]
  Plant response rating, Sugarbeets: 0
Duck salad; [8]
  Plant response rating, Ducksalad (0 to 10 scale, 0 is no effect, 10 is complete control): 0
Duck salad; [9]
  Ducksalad plant response rating (0 to 10 scale, 0 is no effect, 10 is complete control): 0
Duck salad; [10]
  Ducksalad plant response rating: 0
Duck salad; [11]
  Ducksalad plant response rating: 0
Purple nutsedge; [1]
  Plant response rating, Nutsedge: 0
Purple nutsedge; [2]
  Plant response rating, Nutsedge: 0
Purple nutsedge; [3]
  Nutsedge plant response rating: 0
Purple nutsedge; [4]
  Plant response rating, Nutsedge: 0
Purple nutsedge; [5]
  Nutsedge plant response rating: 0
Purple nutsedge; [6]
  Nutsedge plant response rating: 0
Purple nutsedge; [7]
  Plant response rating, Nutsedge: 0
rice; [8]
  Plant response rating, Rice (0 to 10 scale, 0 is no effect, 10 is complete control): 0
rice; [9]
  Rice plant response rating (0 to 10 scale, 0 is no effect, 10 is complete control): 0
rice; [10]
  Rice plant response rating: 0
rice; [11]
  Rice plant response rating: 0
